Measured values: patent publication US8426447B2, “Spiro-tricyclic ring compounds as beta-secretase modulators and methods of use” (Amgen Inc., priority 2008, dated 2013)

Tests used:
[1] = test system: amyloid beta peptide (A-beta) in cerebrospinal fluid and brain; experiment: In Vivo Inhibition of Beta-Secretase: reduction of A-beta levels in CSF and brain; settings: after 4 hrs, mouse or rat
Source text: Several animal models, including mouse, rat, dog, and monkey, may be used to screen for inhibition of beta-secretase activity in vivo following administration of a test compound sample. Animals used in this invention can be wild type, transgenic, or gene knockout animals. […] A separate group of animals receive 2% hydroxypropyl methylcellulose, 1% Tween80 alone, containing no test compound, and serve as a vehicle-control group. At the end of the test period, animals are sacrificed and brain tissues, plasma or cerebrospinal fluid are collected. […] Homogenates are centrifuged at 355,000 g, 4° C. for 30 minutes. CSF or brain supernatants are then analyzed for the presence of A-beta peptide by specific sandwich ELISA assays based on ECL (Electrochemiluminescence) technology. For example, rat Abeta40 is measured using biotinylated-4G8 (Signet) as a capture antibody and Fab40 (an in-house antibody specific to the C-terminal of Abeta40) as a detection antibody.

BACE1 [2] = biological target: T1, BACE1 (Homo sapiens, UniProt P56817); experiment: In Vitro BACE Cell-based Assay (HEK cell assay): Aβ40 in conditioned medium of cells stably expressing Amyloid Precursor Protein, sandwich ELISA
Outline: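 APP-expressing cells were cultured 24 h in DMEM/10% FBS, then treated 24 h with compounds in 10-point dose response (top 100 μM or 10 μM; 0.1% DMSO final). Secreted Aβ40 was quantified by sandwich ELISA (pAb40 capture, biotinylated 6E10 detection, Europium TRF); IC50 from percent inhibition versus concentration.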

BACE1 [3] = biological target: T1, BACE1; experiment: In Vitro Enzymatic BACE FRET (Fluorescence Resonance Energy Transfer) Assay; assay type: biochemical
Outline: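 Run in 0.05 M acetate pH 4.2 with 10% DMSO final and 100 uM genapol detergent below its CMC. Reaction was started with 50 nM FRET peptide substrate (fluorophore and quencher flanking the BACE cleavage site), incubated one hour, stopped with Tris to neutral pH, and fluorescence read.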

[4] = Table IV, class symbols, read-out: HEK cell assay
[5] = Table IV, class symbols, read-out: BACE1 FRET assay
[6] = Table II, Aβ40, 24 h incubation, read-out: HEK cell assay
[7] = Table II, read-out: BACE1 FRET assay
[8] = HEK cells, read-out: HEK cell assay

T1 sequence (P56817 46-501, species assumed): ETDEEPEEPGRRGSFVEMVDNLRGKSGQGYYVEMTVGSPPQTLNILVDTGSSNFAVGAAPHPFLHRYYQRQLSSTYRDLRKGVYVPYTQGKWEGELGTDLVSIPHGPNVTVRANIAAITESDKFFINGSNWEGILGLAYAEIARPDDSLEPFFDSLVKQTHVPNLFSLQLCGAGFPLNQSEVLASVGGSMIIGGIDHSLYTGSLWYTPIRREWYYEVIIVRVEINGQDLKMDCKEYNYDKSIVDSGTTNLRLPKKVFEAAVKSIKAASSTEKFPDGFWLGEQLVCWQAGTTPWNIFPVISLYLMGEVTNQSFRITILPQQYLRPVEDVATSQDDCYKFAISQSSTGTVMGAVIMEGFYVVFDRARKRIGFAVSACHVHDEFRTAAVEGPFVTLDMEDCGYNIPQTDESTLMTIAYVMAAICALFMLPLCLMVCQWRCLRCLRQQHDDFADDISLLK

IC50 (BACE1 [2]; [4]) | IC50 (BACE1 [3]; [5]) | IC50 (BACE1 [2]; [8]) | IC50 (BACE1 [3]; read-out: BACE1 FRET assay) | SMILES | percent reduction in CSF A-beta levels ([1]; 30 mpk) | percent reduction in brain A-beta levels ([1]; 30 mpk) | percent reduction in CSF A-beta levels ([1]; 10 mpk) | percent reduction in brain A-beta levels ([1]; 10 mpk) | further results
< 0.1 µM | < 0.1 µM |  |  | NC1=NC2(CO1)c1cc(-c3cncnc3)ccc1Oc1c(F)cc(C3=CCOCC3)cc12 (stereo in doubt) [Example 295, (R)-2′-(3,6-dihydro-2H-pyran-4-yl)-4′-fluoro-7′-(pyrimidin-5-yl)-5H-spiro[oxazole-4,9′-xanthen]-2-amine] | 78% | 66% |  |  | 
< 0.1 µM | < 0.1 µM |  |  | NC1=NC2(CO1)c1cc(-c3cccnc3)ccc1Oc1c(F)cc(C3=CCOCC3)cc12 (stereo in doubt) [Example 297, (R)-2′-(3,6-dihydro-2H-pyran-4-yl)-4′-fluoro-7′-(pyridin-3-yl)-5H-spiro[oxazole-4,9′-xanthen]-2-amine] | 69% | 54% |  |  | 
 |  |  |  | NC1=N[C@]2(CO1)c1cc(OCC(F)(F)F)ccc1Oc1ccc(-c3cncnc3)cc12 [Example 58, (4S)-2′-(5-pyrimidinyl)-7′-(2,2,2-trifluoroethoxy)spiro[1,3-oxazole-4,9′-xanthen]-2-amine] |  |  | 45% | 29% | IC50 (BACE1 [2]; [6]): 0.1 to 1 µM; IC50 (BACE1 [3]; [7]): < 0.1 µM
 |  |  |  | NC1=N[C@]2(CO1)c1cc(OCC3CC3)ccc1Oc1ccc(-c3cncnc3)cc12 [Example 61, (4S)-2′-(cyclopropylmethoxy)-7′-(5-pyrimidinyl)spiro[1,3-oxazole-4,9′-xanthen]-2-amine] |  |  | 50% | 18% | IC50 (BACE1 [2]; [6]): < 0.1 µM; IC50 (BACE1 [3]; [7]): < 0.1 µM
 |  |  |  | CC(C)(C)COc1ccc2c(c1)[C@]1(COC(N)=N1)c1cc(-c3cccnc3)cnc1O2 [Example 92, (5R)-7-(2,2-dimethylpropoxy)-3-(3-pyridinyl)spiro[chromeno[2,3-b]pyridine-5,4′-[1,3]oxazol]-2′-amine] | 62% | 49% |  |  | IC50 (BACE1 [2]; [6]): < 0.1 µM; IC50 (BACE1 [3]; [7]): < 0.1 µM
 |  |  |  | CC(C)(C)C#Cc1cnc2c(c1)[C@]1(COC(N)=N1)c1cc(-c3cccnc3)ccc1O2 [Example 185b, (5S)-3-(3,3-dimethyl-1-butyn-1-yl)-7-(3-pyridinyl)spiro[chromeno[2,3-b]pyridine-5,4′-[1,3]oxazol]-2′-amine] | 72% | 58% |  |  | IC50 (BACE1 [2]; Table III, IC50's in uM ranges, read-out: HEK cell assay): < 0.1 µM; IC50 (BACE1 [3]; Table III, IC50's in uM ranges, read-out: BACE1 FRET assay): < 0.1 µM
 |  | < 0.1 µM | < 0.1 µM | Cc1cnc(F)c(-c2ccc3c(c2)[C@@]2(COC(N)=N2)c2cc(C4=CCOCC4)ncc2O3)c1 [Example 286, (S)-3-(3,6-dihydro-2H-pyran-4-yl)-7-(2-fluoro-5-methylpyridin-3-yl)-5′H-spiro[chromeno[2,3-c]pyridine-5,4′-oxazol]-2′-amine] |  |  | 73% | 57% | 
 |  | < 0.1 µM | < 0.1 µM | CC(C)(C#N)COc1cc(F)c2c(c1)[C@]1(COC(N)=N1)c1cc(-c3cccnc3F)ccc1O2 [Example 287, (S)-3-(2-amino-5′-fluoro-2′-(2-fluoropyridin-3-yl)-5H-spiro[oxazole-4,9′-xanthene]-7′-yloxy)-2,2-dimethylpropanenitrile] |  |  | 48% | 32% | 
< 0.1 µM | < 0.1 µM |  |  | NC1=N[C@@]2(CO1)c1cc(-c3cccnc3F)ccc1Oc1ccc(N3CCOCC3)cc12 [Example 289, (S)-2′-(2-fluoropyridin-3-yl)-7′-morpholino-5H-spiro[oxazole-4,9′-xanthen]-2-amine 2,2,2-trifluoroacetate] | 69% | 52% | 49% | 23% | 
 |  | < 0.1 µM | < 0.1 µM | CC1(C)CN(c2ccc3c(c2)[C@]2(COC(N)=N2)c2cc(-c4cccnc4F)ccc2O3)CCO1 [Example 290, (S)-2′-(2,2-dimethylmorpholino)-7′-(2-fluoropyridin-3-yl)-5H-spiro[oxazole-4,9′-xanthen]-2-amine] |  |  | 63% | 33% | 
 |  | < 0.1 µM | < 0.1 µM | CC(C)(C)/C=C/c1cc2c(cn1)Oc1ccc(-c3cncnc3)cc1[C@@]21COC(N)=N1 [Example 291, (S,E)-3-(3,3-dimethylbut-1-enyl)-7-(pyrimidin-5-yl)-5′H-spiro[chromeno[2,3-c]pyridine-5,4′-oxazol]-2′-amine] |  |  | 62% | 32% | 
< 0.1 µM | < 0.1 µM |  |  | NC1=N[C@@]2(CO1)c1cc(-c3cncnc3)ccc1Oc1cc(F)c(C3=CCOCC3)cc12 [Example 292, (S)-2′-(3,6-dihydro-2H-pyran-4-yl)-3′-fluoro-7′-(pyrimidin-5-yl)-5H-spiro[oxazole-4,9′-xanthen]-2-amine] |  |  | 57% | 29% | 
 |  | < 0.1 µM | < 0.1 µM | CC(C)(F)COc1cc(F)c2c(c1)[C@]1(COC(N)=N1)c1cc(-c3cncnc3)ccc1O2 [Example 293, (S)-4′-fluoro-2′-(2-fluoro-2-methylpropoxy)-7′-(pyrimidin-5-yl)-5H-spiro[oxazole-4,9′-xanthen]-2-amine] |  |  | 73% | 63% | 
< 0.1 µM | < 0.1 µM |  |  | NC1=N[C@@]2(CO1)c1cc(-c3cc(Cl)ccc3F)ccc1Oc1ncc(C3=CCOCC3)cc12 [Example 296, (S)-7-(5-chloro-2-fluorophenyl)-3-(3,6-dihydro-2H-pyran-4-yl)-5′H-spiro[chromeno[2,3-b]pyridine-5,4′-oxazol]-2′-amine] |  |  | 61% | 40% | 
 |  |  | < 0.1 µM | CC(C)(C)C#Cc1cnc2c(c1)[C@]1(COC(N)=N1)c1cc(-c3cncnc3)ccc1O2 [Example 299, (S)-3-(3,3-dimethylbut-1-ynyl)-7-(pyrimidin-5-yl)-5′H-spiro[chromeno[2,3-b]pyridine-5,4′-oxazol]-2′-amine] | 84% | 81% |  |  | IC50 (BACE1 [2]; read-out: HEK cell assay): < 0.1 µM
 |  | < 0.1 µM | < 0.1 µM | CC1(C)CN(c2cc3c(cn2)Oc2ccc(-c4cccnc4)cc2[C@@]32COC(N)=N2)CCO1 [Example 490, (5S)-3-(2,2-dimethyl-4-morpholinyl)-7-(3-pyridinyl)spiro[chromeno[2,3-c]pyridine-5,4′-[1,3]oxazol]-2′-amine] |  |  | 28% | 9% | 
 |  |  |  | NC1=N[C@@]2(CO1)c1cc(-c3cccnc3F)ccc1Oc1cnc(-c3cccnc3)cc12 [Example 517, (5S)-7-(2-fluoro-3-pyridinyl)-3-(3-pyridinyl)spiro[chromeno[2,3-c]pyridine-5,4′-[1,3]oxazol]-2′-amine] |  |  | 56% | 36% | IC50 (BACE1 [2]; HEK cell assay (uM), HEK cells): < 0.1 µM; IC50 (BACE1 [3]; BACE1 FRET assay (uM)): < 0.1 µM
 |  | < 0.1 µM | < 0.1 µM | Cn1cc(-c2cc3c(cc2F)Oc2ccc(-c4cccnc4)cc2[C@@]32COC(N)=N2)cn1 [Example 531, (4S)-3′-fluoro-2′-(1-methyl-1H-pyrazol-4-yl)-7′-(3-pyridinyl)spiro[1,3-oxazole-4,9′-xanthen]-2-amine] |  |  | 45% | 25% | 
< 0.1 µM | < 0.1 µM |  |  | NC1=N[C@@]2(CO1)c1cc(-c3cccnc3)ccc1Oc1ccc(N3CC(F)(F)C3)cc12 [Example 540, (4S)-2′-(3,3-difluoro-1-azetidinyl)-7′-(3-pyridinyl)spiro[1,3-oxazole-4,9′-xanthen]-2-amine] |  |  | 40% | 7% | 
< 0.1 µM | < 0.1 µM |  |  | NC1=N[C@@]2(CO1)c1cc(-c3ccccc3)ccc1Oc1cnc(C3=CCOCC3)cc12 [Example 545, (5S)-3-(3,6-dihydro-2H-pyran-4-yl)-7-phenylspiro[chromeno[2,3-c]pyridine-5,4′-[1,3]oxazol]-2′-amine] | 73% | 58% |  |  | 
< 0.1 µM | < 0.1 µM |  |  | Cc1cc(-c2ccc3c(c2)[C@]2(COC(N)=N2)c2cc(-c4cccnc4F)ccc2O3)on1 [Example 563, (4S)-2′-(2-fluoro-3-pyridinyl)-7′-(3-methyl-5-isoxazolyl)spiro[1,3-oxazole-4,9′-xanthen]-2-amine] |  |  | 54% | 41% | 
< 0.1 µM | < 0.1 µM |  |  | COC(C)(C)C#Cc1cnc2c(c1)[C@]1(COC(N)=N1)c1cc(-c3cnccn3)ccc1O2 [Example 586, (5S)-3-(3-methoxy-3-methyl-1-butyn-1-yl)-7-(2-pyrazinyl)spiro[chromeno[2,3-b]pyridine-5,4′-[1,3]oxazol]-2′-amine] |  |  | 32% | 11% | 
